Patent publication US9833497B2, “Human originated EGF domain proteins and use of the same” (CHENGDU SOURCEBIO LIMITED-LIABILITY COMPANY, priority 2013, dated 2017)

Tests used:
Type in all cases: cell-based
E. coli DH5α = assay: Antibacterial activity: MIC and growth curve against E. coli DH5α in 96-well plate; conditions: minimal inhibitory concentration against E. coli DH5α; 96-well plate, 5×10^5 CFU/mL, 37° C., judged after 8 h
How it was run: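 Log-phase bacteria (OD600 ~0.5) resuspended in LB at 5×10^5 CFU/mL, exposed to recombinant protein at 50, 25, 12.5 μg/mL final in triplicate, 37 °C shaking at 175 rpm. OD600 read every 30 min; MIC is lowest concentration showing no growth.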

Aeromonas hydrophila = assay: MIC against Gram-negative bacteria: Aeromonas hydrophila
How it was run: (§1)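 Two-fold serial dilutions of each purified human EGF domain protein, three replicate wells per level, were combined with bacteria at a final 5×10^5 CFU/mL in LB. Cultures were shaken at 175 rpm, 37° C. The MIC was taken as the minimum concentration preventing growth.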

Moraxella catarrhalis = assay: MIC against Gram-negative bacteria: Moraxella catarrhalis
How it was run: as §1

Proteus vulgaris = assay: MIC against Gram-negative bacteria: Proteus vulgaris
How it was run: as §1

Pseudomonas aeruginosa = assay: MIC against Gram-negative bacteria: Pseudomonas aeruginosa
How it was run: as §1

E. coli BL21 = assay: MIC against Gram-negative bacteria: E. coli BL21
How it was run: as §1

Klebsiella pneumonia = assay: MIC against Gram-negative bacteria: Klebsiella pneumonia
How it was run: as §1

Proteus mirabilis = assay: MIC against Gram-negative bacteria: Proteus mirabilis
How it was run: as §1

Serratia marcescens = assay: MIC against Gram-negative bacteria: Serratia marcescens
How it was run: as §1

Citrobacter diversus = assay: MIC against Gram-negative bacteria: Citrobacter diversus
How it was run: as §1

Enterobacter cloacae = assay: MIC against Gram-negative bacteria: Enterobacter cloacae
How it was run: as §1

[1] = 96-well plate, 5×10^5 CFU/mL, 37° C., 10 h
[2] = 10 h cultivation at 37° C., 5×10^5 CFU/mL, two-fold serial dilution
[3] = Aeromonas hydrophila, 96-well plate, 5×10^5 CFU/mL, 37° C., 10 h
[4] = Moraxella catarrhalis, 96-well plate, 5×10^5 CFU/mL, 37° C., 10 h
[5] = Proteus vulgaris, 96-well plate, 5×10^5 CFU/mL, 37° C., 10 h
[6] = Pseudomonas aeruginosa, 96-well plate, 5×10^5 CFU/mL, 37° C., 10 h
[7] = E. coli BL21, 96-well plate, 5×10^5 CFU/mL, 37° C., 10 h
[8] = Klebsiella pneumonia, 96-well plate, 5×10^5 CFU/mL, 37° C., 10 h
[9] = Proteus mirabilis, 96-well plate, 5×10^5 CFU/mL, 37° C., 10 h
[10] = Serratia marcescens, 96-well plate, 5×10^5 CFU/mL, 37° C., 10 h
[11] = Citrobacter diversus, 96-well plate, 5×10^5 CFU/mL, 37° C., 10 h
[12] = Enterobacter cloacae, 96-well plate, 5×10^5 CFU/mL, 37° C., 10 h
[13] = A. hydrophila, 10 h cultivation at 37° C.
[14] = M. catarrhalis, 10 h cultivation at 37° C.
[15] = P. vulgaris, 10 h cultivation at 37° C.
[16] = P. aeruginosa, 10 h cultivation at 37° C.
[17] = E. coli BL21, 10 h cultivation at 37° C.
[18] = K. pneumonia, 10 h cultivation at 37° C.
[19] = P. mirabilis, 10 h cultivation at 37° C.
[20] = S. marcescens, 10 h cultivation at 37° C.
[21] = C. diversus, 10 h cultivation at 37° C.
[22] = E. cloacae, 10 h cultivation at 37° C.

**Q.** Which MIC (E. coli DH5α) does the source give for “PRT699 (DVDECSSGAPPCGPHGHCTNTEGSFRCSCAPGYRAPSGRPGPCA; listed as Homo sapiens)” here?
**A.** 50 µg/mL

**Q.** And the “MIC A. hydrophila” value (Aeromonas hydrophila; [1])?
**A.** 12.5 µg/mL

**Q.** What about the “MIC M. catarrhalis” value (Moraxella catarrhalis; [1]) of the same substance?
**A.** 25 µg/mL

**Q.** And the “MIC P. vulgaris” value (Proteus vulgaris; [1])?
**A.** 25 µg/mL

**Q.** What about the “MIC P. aeruginosa” value (Pseudomonas aeruginosa; [1]) of the same substance?
**A.** 12.5 µg/mL

**Q.** What about the “MIC E. coli BL21” value (E. coli BL21; [1]) of the same substance?
**A.** 25 µg/mL

**Q.** What about the “MIC K. pneumonia” value (Klebsiella pneumonia; [1]) of the same substance?
**A.** 25 µg/mL

**Q.** What about the “MIC P. mirabilis” value (Proteus mirabilis; [1]) of the same substance?
**A.** 12.5 µg/mL

**Q.** What about the “MIC S. marcescens” value (Serratia marcescens; [1]) of the same substance?
**A.** 50 µg/mL

**Q.** What about the “MIC C. diversus” value (Citrobacter diversus; [1]) of the same substance?
**A.** 50 µg/mL

**Q.** What about the “MIC E. cloacae” value (Enterobacter cloacae; [1]) of the same substance?
**A.** 50 µg/mL

**Q.** For “PRT1177 (DANECEAKPCVNAKSCKNLIASYYCDCLPGWMGQNCD; listed as Homo sapiens)”, which MIC (E. coli DH5α) is on record?
**A.** 50 µg/mL

**Q.** What about the “MIC A. hydrophila” value (Aeromonas hydrophila; [2]) of the same substance?
**A.** 12.5 µg/mL

**Q.** What about the “MIC M. catarrhalis” value (Moraxella catarrhalis; [2]) of the same substance?
**A.** 12.5 µg/mL

**Q.** What about the “MIC P. vulgaris” value (Proteus vulgaris; [2]) of the same substance?
**A.** 12.5 µg/mL

**Q.** What about the “MIC P. aeruginosa” value (Pseudomonas aeruginosa; [2]) of the same substance?
**A.** 50 µg/mL

**Q.** What about the “MIC E. coli BL21” value (E. coli BL21; [2]) of the same substance?
**A.** 12.5 µg/mL

**Q.** What about the “MIC K. pneumonia” value (Klebsiella pneumonia; [2]) of the same substance?
**A.** 12.5 µg/mL

**Q.** What about the “MIC P. mirabilis” value (Proteus mirabilis; [2]) of the same substance?
**A.** 50 µg/mL

**Q.** What about the “MIC S. marcescens” value (Serratia marcescens; [2]) of the same substance?
**A.** 25 µg/mL

**Q.** And the “MIC C. diversus” value (Citrobacter diversus; [2])?
**A.** 50 µg/mL

**Q.** What about the “MIC E. cloacae” value (Enterobacter cloacae; [2]) of the same substance?
**A.** 50 µg/mL

**Q.** For “PRT171 (CDPSPCKNGGSCTDLENSYSCTCPPGFYGKIC; listed as Homo sapiens)”, which MIC (E. coli DH5α) is on record?
**A.** 25 µg/mL

**Q.** And the “MIC (μg/mL) A. hydrophila” value (Aeromonas hydrophila; A. hydrophila, 10 h cultivation at 37° C., 5×10^5 CFU/mL)?
**A.** 50 µg/mL

**Q.** And the “MIC (μg/mL) M. catarrhalis” value (Moraxella catarrhalis; M. catarrhalis, 10 h cultivation at 37° C., 5×10^5 CFU/mL)?
**A.** 12.5 µg/mL

**Q.** What about the “MIC (μg/mL) P. vulgaris” value (Proteus vulgaris; P. vulgaris, 10 h cultivation at 37° C., 5×10^5 CFU/mL) of the same substance?
**A.** 50 µg/mL

**Q.** What about the “MIC (μg/mL) P. aeruginosa” value (Pseudomonas aeruginosa; P. aeruginosa, 10 h cultivation at 37° C., 5×10^5 CFU/mL) of the same substance?
**A.** 25 µg/mL

**Q.** And the “MIC (μg/mL) E. coli BL21” value (E. coli BL21; E. coli BL21, 10 h cultivation at 37° C., 5×10^5 CFU/mL)?
**A.** 50 µg/mL

**Q.** And the “MIC (μg/mL) K. pneumonia” value (Klebsiella pneumonia; K. pneumonia, 10 h cultivation at 37° C., 5×10^5 CFU/mL)?
**A.** 12.5 µg/mL

**Q.** And the “MIC (μg/mL) P. mirabilis” value (Proteus mirabilis; P. mirabilis, 10 h cultivation at 37° C., 5×10^5 CFU/mL)?
**A.** 25 µg/mL

**Q.** What about the “MIC (μg/mL) S. marcescens” value (Serratia marcescens; S. marcescens, 10 h cultivation at 37° C., 5×10^5 CFU/mL) of the same substance?
**A.** 25 µg/mL

**Q.** And the “MIC (μg/mL) C. diversus” value (Citrobacter diversus; C. diversus, 10 h cultivation at 37° C., 5×10^5 CFU/mL)?
**A.** 25 µg/mL

**Q.** And the “MIC (μg/mL) E. cloacae” value (Enterobacter cloacae; E. cloacae, 10 h cultivation at 37° C., 5×10^5 CFU/mL)?
**A.** 25 µg/mL

**Q.** With “PRT1316 (ELPVCQELRCPQNTQCSAEAPSCRCLPGYTQQGSE; listed as Homo sapiens)” as the substance, how does the MIC (E. coli DH5α) read?
**A.** 50 µg/mL

**Q.** What about the “MIC against A. hydrophila” value (Aeromonas hydrophila; [3]) of the same substance?
**A.** 50 µg/mL

**Q.** And the “MIC against M. catarrhalis” value (Moraxella catarrhalis; [4])?
**A.** 50 µg/mL

**Q.** And the “MIC against P. vulgaris” value (Proteus vulgaris; [5])?
**A.** 50 µg/mL

**Q.** And the “MIC against P. aeruginosa” value (Pseudomonas aeruginosa; [6])?
**A.** 50 µg/mL

**Q.** What about the “MIC against E. coli BL21” value (E. coli BL21; [7]) of the same substance?
**A.** 12.5 µg/mL

**Q.** What about the “MIC against K. pneumonia” value (Klebsiella pneumonia; [8]) of the same substance?
**A.** 25 µg/mL

**Q.** And the “MIC against P. mirabilis” value (Proteus mirabilis; [9])?
**A.** 12.5 µg/mL

**Q.** What about the “MIC against S. marcescens” value (Serratia marcescens; [10]) of the same substance?
**A.** 12.5 µg/mL

**Q.** What about the “MIC against C. diversus” value (Citrobacter diversus; [11]) of the same substance?
**A.** 12.5 µg/mL

**Q.** What about the “MIC against E. cloacae” value (Enterobacter cloacae; [12]) of the same substance?
**A.** 12.5 µg/mL

**Q.** Which results are given for “PRT968 (LEDPCHSGPCAGRGVCQSSVVAGTARFSCRCPRGFRGPDCS; listed as Homo sapiens)”?
**A.** MIC (E. coli DH5α): 25 µg/mL; MIC (Aeromonas hydrophila; [13]): 25 µg/mL; MIC (Moraxella catarrhalis; [14]): 25 µg/mL; MIC (Proteus vulgaris; [15]): 25 µg/mL; MIC (Pseudomonas aeruginosa; [16]): 25 µg/mL; MIC (E. coli BL21; [17]): 12.5 µg/mL; MIC (Klebsiella pneumonia; [18]): 12.5 µg/mL; MIC (Proteus mirabilis; [19]): 50 µg/mL; MIC (Serratia marcescens; [20]): 12.5 µg/mL; MIC (Citrobacter diversus; [21]): 12.5 µg/mL; MIC (Enterobacter cloacae; [22]): 25 µg/mL

**Q.** How did the MIC (E. coli DH5α) turn out when “PRT134 (IKDRCLPNYCEHGGSCSQSWTTFYCNCSDTSYTGATCH; listed as Homo sapiens)” was run?
**A.** 12.5 µg/mL

**Q.** And the “MIC (μg/mL) A. hydrophila” value (Aeromonas hydrophila; [3])?
**A.** 25 µg/mL

**Q.** And the “MIC (μg/mL) M. catarrhalis” value (Moraxella catarrhalis; [4])?
**A.** 12.5 µg/mL

**Q.** And the “MIC (μg/mL) P. vulgaris” value (Proteus vulgaris; [5])?
**A.** 25 µg/mL

**Q.** And the “MIC (μg/mL) P. aeruginosa” value (Pseudomonas aeruginosa; [6])?
**A.** 12.5 µg/mL

**Q.** What about the “MIC (μg/mL) E. coli BL21” value (E. coli BL21; [7]) of the same substance?
**A.** 12.5 µg/mL

**Q.** What about the “MIC (μg/mL) K. pneumonia” value (Klebsiella pneumonia; [8]) of the same substance?
**A.** 25 µg/mL

**Q.** And the “MIC (μg/mL) P. mirabilis” value (Proteus mirabilis; [9])?
**A.** 100 µg/mL

**Q.** And the “MIC (μg/mL) S. marcescens” value (Serratia marcescens; [10])?
**A.** 12.5 µg/mL

**Q.** What about the “MIC (μg/mL) C. diversus” value (Citrobacter diversus; [11]) of the same substance?
**A.** 25 µg/mL

**Q.** And the “MIC (μg/mL) E. cloacae” value (Enterobacter cloacae; [12])?
**A.** 12.5 µg/mL

**Q.** For “PRT899 (NINECASNPCLNQGTCIDDVAGYKCNCLLPYTGATCE; listed as Homo sapiens)”, which MIC (E. coli DH5α) is on record?
**A.** 12.5 µg/mL

**Q.** And the MIC (Aeromonas hydrophila; [13])?
**A.** 12.5 µg/mL

**Q.** What about the MIC (Moraxella catarrhalis; [14]) of the same substance?
**A.** 12.5 µg/mL

**Q.** What about the MIC (Proteus vulgaris; [15]) of the same substance?
**A.** 12.5 µg/mL

**Q.** And the MIC (Pseudomonas aeruginosa; [16])?
**A.** 12.5 µg/mL

**Q.** What about the MIC (E. coli BL21; [17]) of the same substance?
**A.** 12.5 µg/mL

**Q.** And the MIC (Klebsiella pneumonia; [18])?
**A.** 12.5 µg/mL

**Q.** And the MIC (Proteus mirabilis; [19])?
**A.** 50 µg/mL

**Q.** What about the MIC (Serratia marcescens; [20]) of the same substance?
**A.** 12.5 µg/mL

**Q.** And the MIC (Citrobacter diversus; [21])?
**A.** 50 µg/mL

**Q.** What about the MIC (Enterobacter cloacae; [22]) of the same substance?
**A.** 50 µg/mL
